Assay results: PubChem BioAssay AID1159565 (GlaxoSmithKline (GSK), 2015)
Calls of active or inactive are those of the source. No rule for the calls is given here.

Test system: T. cruzi-infected H9C2 cardiomyocytes, high-content imaging
Assay: intracellular T. cruzi amastigote inhibition, imaging, H9C2 host cardiomyocytes, host toxicity (AID 1159565);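 also: infected cells incubated 72 h after plating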
[1] = measured here: H9C2 host cell toxicity
[2] = measured here: amastigotes per cell

O=C(Nc1cccc(Cl)c1)N1CCCCC1c1cccnc1 (stereo unspecified)
IC50: 200 nM | IC50 [1]: > 50000 nM | IC50 [2]: 200 nM

COc1cccc2sc(CN(C)C(=O)C3CNCCN3c3ccc(F)cc3)c(C)c12 (stereo unspecified)
IC50: 200 nM | IC50 [1]: 7900 nM | IC50 [2]: 160 nM

O=C1CCCCCC1(Cc1cnc[nH]1)c1ccc(Cl)cc1Cl (stereo unspecified)
IC50: 250 nM | IC50 [1]: > 50000 nM | IC50 [2]: 320 nM

O=C1CN(Cc2ccco2)C2CS(=O)(=O)CC2N1c1ccc(Cl)cc1 (stereo unspecified)
IC50: > 50000 nM (inactive) | IC50 [1]: > 50000 nM | IC50 [2]: > 50000 nM

N#CN1CC[C@@H](NC(=O)Nc2ccccc2Oc2ccccc2)C1
IC50: 4000 nM | IC50 [1]: 20000 nM | IC50 [2]: 5000 nM

COCc1cc(Nc2ccc(Cl)cc2)nc(-c2ccccn2)n1
IC50: 5000 nM | IC50 [1]: 1300 nM | IC50 [2]: 2500 nM

Cc1ccccc1CNc1cc(C2CC2)nc(-c2nccn2C)n1
IC50: 790 nM | IC50 [1]: 790 nM | IC50 [2]: 790 nM

COc1ccc(-c2cc(C)no2)cc1S(=O)(=O)Nc1ccc(F)c(Cl)c1
IC50: 3200 nM | IC50 [1]: 50000 nM | IC50 [2]: 4000 nM

N#Cc1ccc(Br)cc1[N+](=O)[O-]
IC50: 790 nM | IC50 [1]: 40000 nM | IC50 [2]: 63 nM

CCCCn1nnnc1CSc1nc(C)cc(C)c1C#N
IC50: 200 nM | IC50 [1]: > 50000 nM | IC50 [2]: 100 nM

O=C(NCCc1ccn(-c2ccccc2)n1)C1CCCCC1
IC50: 1000 nM | IC50 [1]: > 50000 nM | IC50 [2]: 1000 nM

CNS(=O)(=O)c1ccccc1Nc1nc(Nc2cc(C)nn2C)ncc1Cl
IC50: 790 nM | IC50 [1]: 250 nM | IC50 [2]: 500 nM

O=C(C1CCCCC1)N1CCN(c2nnc(-c3ccccc3)c3ccccc23)CC1
IC50: 630 nM | IC50 [1]: > 50000 nM | IC50 [2]: 400 nM

Cc1nccn1C1CCCN(C(=O)c2cc3c(F)cccc3s2)C1 (stereo unspecified)
IC50: 1000 nM | IC50 [1]: > 50000 nM | IC50 [2]: 790 nM

FC(F)(F)c1cc(C2CCCN(Cc3c[nH]c4ccccc34)C2)nc2ncnn12 (stereo unspecified)
IC50: 10000 nM | IC50 [1]: > 50000 nM | IC50 [2]: 6300 nM

COc1ccc(-c2csc(NC(=O)c3ccc([N+](=O)[O-])s3)n2)cc1
IC50: 250 nM | IC50 [1]: 32000 nM | IC50 [2]: 200 nM

Cc1nc(-c2nc(NCc3ccc(Cl)cc3)c3cccnc3c2O)n[nH]1
IC50: 790 nM | IC50 [1]: 25000 nM | IC50 [2]: 1300 nM

Cc1ccnc(NS(=O)(=O)c2ccc(NC(=O)c3ccc([N+](=O)[O-])s3)cc2)n1
IC50: 10000 nM | IC50 [1]: 5000 nM | IC50 [2]: 6300 nM

CCCCCNC(=O)c1c[nH]c2ccc(S(=O)(=O)N(C)c3ccc(OCC)cc3)cc2c1=O
IC50: > 50000 nM (inactive) | IC50 [1]: > 50000 nM | IC50 [2]: > 50000 nM

N#Cc1c(Oc2cccc(Cl)c2)cccc1[N+](=O)[O-]
IC50: 630 nM | IC50 [1]: 16000 nM | IC50 [2]: 130 nM

CN(C)Cc1ccc(N2CCC(NS(=O)(=O)c3ccc(Cl)cc3)CC2)cc1
IC50: 320 nM | IC50 [1]: 13000 nM | IC50 [2]: 250 nM

Cc1ccc(NC(=O)c2ccc(Cl)c(NC(=O)c3ccc([N+](=O)[O-])cc3)c2)cc1
IC50: 500 nM | IC50 [1]: > 50000 nM | IC50 [2]: 200 nM

O=C(CN(c1cccc(C(F)(F)F)c1)S(=O)(=O)c1ccc(Cl)cc1)NCc1ccc(F)c(F)c1
IC50: 790 nM | IC50 [1]: > 50000 nM | IC50 [2]: 500 nM

COCc1cc(Nc2ccccc2)nc(-c2ccccn2)n1
IC50: 25000 nM | IC50 [1]: 4000 nM | IC50 [2]: 13000 nM

CS(=O)(=O)c1cccc(-c2cnc(N)c3c(-c4ccc(CO)cc4)csc23)c1
IC50: 630 nM | IC50 [1]: > 50000 nM | IC50 [2]: 320 nM

COc1ccc2nccc(NC(=O)C3(OC)CCN(CC(O)c4ccc5c(c4)OCCO5)CC3)c2n1 (stereo unspecified)
IC50: 320 nM | IC50 [1]: 16000 nM | IC50 [2]: 130 nM

CCN(CC)S(=O)(=O)c1ccc(Cn2nc(C(=O)Nc3ccncn3)c3ccccc32)cc1
IC50: 400 nM | IC50 [1]: 25000 nM | IC50 [2]: 400 nM

CCn1nccc1CN(C)C(=O)C=Cc1ccc(Cl)cc1
IC50: 320 nM | IC50 [1]: > 50000 nM | IC50 [2]: 320 nM

Nc1nccc(-c2csc(Nc3ccc(Cl)cc3)n2)n1
IC50: > 50000 nM (inactive) | IC50 [1]: 2000 nM | IC50 [2]: > 50000 nM

COc1ccc(C(=O)Nc2c(C)nn(COc3cccc(C(F)(F)F)c3)c2C)cc1
IC50: 40000 nM | IC50 [1]: > 50000 nM | IC50 [2]: 25000 nM

CCCn1c(NC(=O)Cc2ccc(Cl)cc2)nc2ccccc21
IC50: 2000 nM | IC50 [1]: > 50000 nM | IC50 [2]: 1300 nM

CS(=O)(=O)c1ccc(Nc2nccc(-c3cnn4ncccc34)n2)cc1
IC50: 25000 nM | IC50 [1]: 5000 nM | IC50 [2]: 1000 nM

Cc1nnnn1-c1cccc(C(=O)N2CCC[C@@]3(C)c4ncncc4CCC23)c1 (stereo partly specified)
IC50: 320 nM | IC50 [1]: > 50000 nM | IC50 [2]: 320 nM

N#Cc1cc([N+](=O)[O-])ccc1NC1CCCCCC1
IC50: 2000 nM | IC50 [1]: > 50000 nM | IC50 [2]: 1300 nM

c1ccc2c(CCOc3nccnc3-c3ccncc3)c[nH]c2c1
IC50: 160 nM | IC50 [1]: > 50000 nM | IC50 [2]: 160 nM

Cn1c(CN2CCN(c3ncc(C(F)(F)F)cc3Cl)CC2)nc2ccncc21
IC50: 1000 nM | IC50 [1]: > 50000 nM | IC50 [2]: 1000 nM

O=C1NCc2cccc(Nc3nc(NC4CCC(O)CC4)ncc3Br)c21 (stereo unspecified)
IC50: 1000 nM | IC50 [1]: 100 nM | IC50 [2]: 400 nM

COc1ccc(CN(C)Cc2ccncc2)cc1-c1ccc(S(=O)(=O)NC2CCC2)s1
IC50: 630 nM | IC50 [1]: 10000 nM | IC50 [2]: 500 nM

O=C(NCCc1cccnc1)c1csc(-c2ccccc2)n1
IC50: 500 nM | IC50 [1]: > 50000 nM | IC50 [2]: 400 nM

CC1(C)CCC(=Cc2ccc(Cl)cc2)CC1(O)Cn1ccnc1 (stereo unspecified)
IC50: 7.9 nM | IC50 [1]: 32000 nM | IC50 [2]: 5 nM

N#Cc1cccc(CNc2ccc(-c3cnn(CC4CC4)c(=O)c3C#N)cc2)c1
IC50: 7900 nM | IC50 [1]: > 50000 nM | IC50 [2]: 5000 nM

Cc1ccc(-c2csc(NC(=O)C=Cc3ccc(S(=O)(=O)N4CCOCC4)cc3)n2)o1
IC50: 10000 nM | IC50 [1]: 32000 nM | IC50 [2]: 10000 nM

COc1cc(OC)cc(C(=O)N[C@@H](CC(C)C)C(=O)NC2(C#N)CC2)c1
IC50: > 50000 nM (inactive) | IC50 [1]: > 50000 nM | IC50 [2]: > 50000 nM

CCC(c1ccc(F)cc1)n1cncc1-c1cnn(C)c1 (stereo unspecified)
IC50: 320 nM | IC50 [1]: > 50000 nM | IC50 [2]: 320 nM

CC(C)c1cc(C(=O)N2CCCC(c3cc4ncccc4[nH]3)C2)on1 (stereo unspecified)
IC50: 3200 nM | IC50 [1]: > 50000 nM | IC50 [2]: 1000 nM

Nc1nc(-c2ccccc2)cc(-c2nc3ncccc3[nH]2)n1
IC50: 2000 nM | IC50 [1]: 13000 nM | IC50 [2]: 1600 nM

CCOc1ccc(CN(C)Cc2nc(N)nc(Nc3ccc(C)cc3)n2)cc1
IC50: 5000 nM | IC50 [1]: 3200 nM | IC50 [2]: 5000 nM

COc1ccc(-c2csc(NC(=O)c3ccc([N+](=O)[O-])s3)n2)cc1OC
IC50: 100 nM | IC50 [1]: 6300 nM | IC50 [2]: 79 nM

CCC(=O)N1N=C(c2ccc3c(c2)CCCC3)Sc2c1ncn2C(=O)CC
IC50: 20000 nM | IC50 [1]: > 50000 nM | IC50 [2]: 13000 nM

c1ccc(-c2nc(NC3CCCC3)c3ccccc3n2)nc1
IC50: 790 nM | IC50 [1]: 500 nM | IC50 [2]: 2000 nM

CC(Cn1ccnc1)NC(=O)C=Cc1ccc(Cl)cc1 (stereo unspecified)
IC50: 1000 nM | IC50 [1]: > 50000 nM | IC50 [2]: 630 nM

O=C(CC1(O)C(=O)N(Cc2cccs2)c2ccc(Br)cc21)c1cccnc1 (stereo unspecified)
IC50: 40000 nM | IC50 [1]: 4000 nM | IC50 [2]: 25000 nM

Oc1c(-c2n[nH]c(CCc3ccccc3)n2)ncc2cccnc12
IC50: 200 nM | IC50 [1]: 16000 nM | IC50 [2]: 200 nM

COc1ccc(C)cc1-c1csc(NC(=O)C(C)n2ccnc2)n1 (stereo unspecified)
IC50: 100 nM | IC50 [1]: > 50000 nM | IC50 [2]: 100 nM

COc1cnc2ccc(=O)n(CCN3CCC(NC(=O)Cc4ccc(Cl)c(Cl)c4)CC3)c2c1
IC50: 400 nM | IC50 [1]: 6300 nM | IC50 [2]: 160 nM

O=C(NCCc1csc(-c2cccc(F)c2)n1)c1ccco1
IC50: 1600 nM | IC50 [1]: 10000 nM | IC50 [2]: 1300 nM

Cc1nc(N2CCC(C(=O)N3CCC(O)(c4cccnc4)CC3)CC2)nc2ccc(C(C)C)cc12
IC50: 320 nM | IC50 [1]: 40000 nM | IC50 [2]: 400 nM

O=C(Nc1ccc(C(=O)N2CCCC2c2ccc3c(c2)OCCCO3)cc1)c1ccco1 (stereo unspecified)
IC50: 1000 nM | IC50 [1]: > 50000 nM | IC50 [2]: 630 nM

CC(C)(C)Nc1nc(Nc2ccc3c(c2)CS(=O)(=O)C3)nc2[nH]ccc12
IC50: 32000 nM | IC50 [1]: 1000 nM | IC50 [2]: 20000 nM

CCNc1cc(-c2ccccn2)nc(Nc2ccccc2)n1
IC50: 3200 nM | IC50 [1]: 250 nM | IC50 [2]: 3200 nM

COc1ccc(C(C)N(C)c2ncc3c(N)nc(N)nc3n2)cc1F (stereo unspecified)
IC50: 200 nM | IC50 [1]: 25000 nM | IC50 [2]: 63 nM

CN(C)S(=O)(=O)c1cccc(C(=O)Nc2nc(-c3ccccn3)cs2)c1
IC50: 1600 nM | IC50 [1]: 7900 nM | IC50 [2]: 1000 nM

NC(=O)c1ncccc1Nc1nc(NC2CCC(O)CC2)ncc1Br (stereo unspecified)
IC50: 2000 nM | IC50 [1]: 630 nM | IC50 [2]: 500 nM

Cc1[nH]nc2c1C(c1ccc(OCc3ccccc3F)cc1)SCC(=O)N2 (stereo unspecified)
IC50: 3200 nM | IC50 [1]: > 50000 nM | IC50 [2]: 790 nM

CNc1cncc(C2CCCN2C(=O)Cc2coc3cc(C)ccc23)n1 (stereo unspecified)
IC50: 200 nM | IC50 [1]: > 50000 nM | IC50 [2]: 200 nM

CC(=O)Nc1ccc(CN2CCC(N3CC(c4ccccc4)(c4ccccc4)OCC3=O)CC2)cc1
IC50: 32000 nM | IC50 [1]: > 50000 nM | IC50 [2]: 20000 nM

CCOc1ccc(NC(=O)c2ccc(NC(=O)NC3CCCCC3)cc2)cc1
IC50: > 50000 nM (inactive) | IC50 [1]: > 50000 nM | IC50 [2]: > 50000 nM

CC1CCCCN1C(=O)NCCc1coc(-c2ccc(F)cc2)n1 (stereo unspecified)
IC50: 320 nM | IC50 [1]: > 50000 nM | IC50 [2]: 320 nM

N#Cc1cccc(Nc2nccc(N3CCC(NS(=O)(=O)c4cccc(C#N)c4)CC3)n2)c1
IC50: 7900 nM | IC50 [1]: 32000 nM | IC50 [2]: 3200 nM

COc1cc(OC)cc(C(NS(=O)(=O)c2ccc(Cl)c(C(F)(F)F)c2)c2nccn2C)c1 (stereo unspecified)
IC50: 6300 nM | IC50 [1]: 10000 nM | IC50 [2]: 3200 nM

COc1ccc(OC)c(NC(=O)c2ccc([N+](=O)[O-])o2)c1
IC50: 13000 nM | IC50 [1]: 4000 nM | IC50 [2]: 7900 nM

COc1ccc(NC(=O)c2ccc(NC(=O)CN(c3ccccc3C)S(C)(=O)=O)cc2)cc1
IC50: 25000 nM | IC50 [1]: 25000 nM | IC50 [2]: 20000 nM
